{"source": "patent US20180200257A1", "about": "“METHODS FOR THE TREATMENT OF INFLAMMATORY DISORDERS” (Galapagos NV, priority 2015, published 2018)", "tested_on": "subjects with moderately to severely active RA who have an inadequate response to methotrexate (MTX)", "assay": "Study 2 (monotherapy) - DAS28(CRP) scores", "type": "in vivo, human", "description": "Randomized, double-blind, placebo-controlled, multicenter, phase IIb dose finding study of Compound 1 (dosed as a [Compound 1:HCl:3H2O]) administered for 24 weeks as monotherapy to subjects with moderately to severely active rheumatoid arthritis who have an inadequate response to methotrexate alone\nDouble-blind, placebo-controlled, monotherapy study in subjects with moderately to severely active RA who have an inadequate response to methotrexate (MTX) (oral or parenteral).\n280 subjects randomized to one of 3 doses of Compound 1 (dosed as a [Compound 1:HCl:3H2O]) or to placebo, given once daily (q.d.).\nTwelve weeks of treatment with Compound 1 (dosed as a [Compound 1:HCl:3H2O]) at 50 mg, 100 mg, or 200 mg q.d.; or placebo. At Week 12, all subjects on placebo and the subjects on the 50 mg dose who have not achieved 20% improvement in swollen joint count (SJC66) and tender joint count (TJC68) will be assigned to 100 mg q.d. in a blinded fashion and will continue treatment until Week 24. Subjects in the other groups will maintain their randomized treatment until Week 24.\nThe (DAS28(CRP)) is a system developed and validated by the European League Against Rheumatism (EULAR) to measure the progress and improvement of rheumatoid arthritis and has been extensively validated (Wells et al., 2008). The DAS28(CRP) scoring includes a 28 tender and swollen joint count, CRP measurement from blood analysis, and a general health assessment on a visual analog scale (Fransen et al., 2003).\nDAS28(CRP) values range from 2.0 to 10.0, and more particularly reflect the following status: • Remission: DAS28(CRP) ≤2.6 • Low Disease activity: 2.6 <DAS28(CRP) ≤3.2 • Moderate Disease Activity: 3.2 <DAS28(CRP) ≤5.1 • High Disease Activity: DAS28(CRP) >5.1\nIn practice, the DAS28(CRP) measurement involves the evaluation 28 different joints including in the measurement (proximal interphalangeal joints (10 joints), metacarpophalangeal joints (10), wrists (2), elbows (2), shoulders (2), and knees (2)). When looking at these joints, both the number of joints with tenderness upon touching and swelling are counted.\nSecondly, C-reactive protein level is measured.\nFinally, the patient makes a subjective assessment of disease activity during the preceding 7 days on a scale between 0 and 100, where 0 is “no activity” and 100 is “highest activity possible”.\nThe DAS28(CRP) score is then calculated as follows:\nFirstly, the patient is asked to make a vertical mark on a 100 mm Visual Analog Scale (VAS) corresponding to their general health or global disease activity on a touch screen to measure the VAS value, which is used in the formula below.\nSecondly, a swollen and tender joint examination is then performed on the patient. The swollen and tender joints are recorded. From this examination are obtained the total amount of swollen joints (SJC) and the total amount of tender joints (TJC), which are used in the formula below.\nThirdly, C-reactive protein (CRP) levels are measured.\nFinally, the values obtained above (VAS, TJC28, SJC28, and CRP) are computed into the following Formula to obtain the DAS28(CRP) score.\nDAS28(CRP)=0.56*√{square root over (TJC28)}+0.28√{square root over (SJC28)}+[…] ln(CRP+1)+0.014*VAS\nThe improvement (decreases) in the DAS28(CRP) scores for each patient group at weeks 1, 2, 4, 8 and 12 is shown in Table LXXXVII and Table LXXXVIII below, together with the Hommel-corrected p-value for the pairwise comparisons of each group with placebo.\nThe number of subjects (N) provided in each groups corresponds to the number of subjects starting the study in each group, and the DAS28 (CRP) data reported below corresponds to the responding subjects continuing for the entire 24 weeks on their initial treatment course.", "data": [{"smiles": "O=C(Nc1nc2cccc(-c3ccc(CN4CCS(=O)(=O)CC4)cc3)n2n1)C1CC1", "note": "[Compound 1, cyclopropanecarboxylic acid {5-[4-(1,1-dioxo-thiomorpholin-4-ylmethyl)-phenyl]-[1,2,4]triazolo[1,5-a]pyridin-2-yl}-amide]", "values": [{"measurement": "DAS28(CRP) mean CFB (LOCF)", "setting": "50 mg q.d., week 1, 12 weeks results", "result": "−0.70"}, {"measurement": "DAS28(CRP) mean CFB (LOCF)", "setting": "50 mg q.d., week 2, 12 weeks results", "result": "−0.97"}, {"measurement": "DAS28(CRP) mean CFB (LOCF)", "setting": "50 mg q.d., week 2, 24 weeks results", "result": "−1.03"}, {"measurement": "DAS28(CRP) mean CFB (LOCF)", "setting": "50 mg q.d., week 4, 12 weeks results", "result": "−1.37"}, {"measurement": "DAS28(CRP) mean CFB (LOCF)", "setting": "50 mg q.d., week 4, 24 weeks results", "result": "−1.43"}, {"measurement": "DAS28(CRP) mean CFB (LOCF)", "setting": "50 mg q.d., week 12, 12 weeks results", "result": "−1.69"}, {"measurement": "% patients reaching low disease activity and/or remission at week 12 (LOCF)", "setting": "50 mg q.d., 12 weeks results", "result": 24, "unit": "%"}, {"measurement": "% patients reaching low disease activity at week 12 (LOCF)", "setting": "50 mg q.d., 12 weeks results", "result": 13, "unit": "%"}, {"measurement": "% patients reaching remission at week 12 (LOCF)", "setting": "50 mg q.d., 12 weeks results", "result": 11, "unit": "%"}, {"measurement": "% patients reaching low disease activity and/or remission at week 24 (LOCF)", "setting": "50 mg q.d., 24 weeks results", "result": 36, "unit": "%"}, {"measurement": "% patients reaching low disease activity at week 24 (LOCF)", "setting": "50 mg q.d., 24 weeks results", "result": 17, "unit": "%"}, {"measurement": "% patients reaching remission at week 24 (LOCF)", "setting": "50 mg q.d., 24 weeks results", "result": 19, "unit": "%"}, {"measurement": "DAS28(CRP) mean CFB (LOCF)", "setting": "50 mg q.d., week 8, 12 weeks results", "result": "−1.65"}, {"measurement": "DAS28(CRP) mean CFB (LOCF)", "setting": "50 mg q.d., week 8, 24 weeks results", "result": "−1.71"}, {"measurement": "DAS28(CRP) mean CFB (LOCF)", "setting": "100 mg q.d., week 1, 12 weeks results", "result": "−0.88"}, {"measurement": "DAS28(CRP) mean CFB (LOCF)", "setting": "100 mg q.d., week 2, 12 weeks results", "result": "−1.04"}, {"measurement": "DAS28(CRP) mean CFB (LOCF)", "setting": "100 mg q.d., week 2, 24 weeks results", "result": "−1.04"}, {"measurement": "DAS28(CRP) mean CFB (LOCF)", "setting": "100 mg q.d., week 4, 12 weeks results", "result": "−1.50"}, {"measurement": "DAS28(CRP) mean CFB (LOCF)", "setting": "100 mg q.d., week 4, 24 weeks results", "result": "−1.48"}, {"measurement": "DAS28(CRP) mean CFB (LOCF)", "setting": "100 mg q.d., week 12, 12 weeks results", "result": "−2.04"}, {"measurement": "% patients reaching low disease activity and/or remission at week 12 (LOCF)", "setting": "100 mg q.d., 12 weeks results", "result": 28, "unit": "%"}, {"measurement": "% patients reaching low disease activity at week 12 (LOCF)", "setting": "100 mg q.d., 12 weeks results", "result": 13, "unit": "%"}, {"measurement": "% patients reaching remission at week 12 (LOCF)", "setting": "100 mg q.d., 12 weeks results", "result": 14, "unit": "%"}, {"measurement": "% patients reaching low disease activity and/or remission at week 24 (LOCF)", "setting": "100 mg q.d., 24 weeks results", "result": 50, "unit": "%"}, {"measurement": "% patients reaching low disease activity at week 24 (LOCF)", "setting": "100 mg q.d., 24 weeks results", "result": 29, "unit": "%"}, {"measurement": "% patients reaching remission at week 24 (LOCF)", "setting": "100 mg q.d., 24 weeks results", "result": 21, "unit": "%"}, {"measurement": "DAS28(CRP) mean CFB (LOCF)", "setting": "100 mg q.d., week 8, 12 weeks results", "result": "−1.91"}, {"measurement": "DAS28(CRP) mean CFB (LOCF)", "setting": "200 mg q.d., week 1, 12 weeks results", "result": "−1.15"}, {"measurement": "DAS28(CRP) mean CFB (LOCF)", "setting": "200 mg q.d., week 2, 12 weeks results", "result": "−1.54"}, {"measurement": "DAS28(CRP) mean CFB (LOCF)", "setting": "200 mg q.d., week 2, 24 weeks results", "result": "−1.55"}, {"measurement": "DAS28(CRP) mean CFB (LOCF)", "setting": "200 mg q.d., week 4, 12 weeks results", "result": "−1.87"}, {"measurement": "DAS28(CRP) mean CFB (LOCF)", "setting": "200 mg q.d., week 4, 24 weeks results", "result": "−1.87"}, {"measurement": "DAS28(CRP) mean CFB (LOCF)", "setting": "200 mg q.d., week 12, 12 weeks results", "result": "−2.33"}, {"measurement": "% patients reaching low disease activity and/or remission at week 12 (LOCF)", "setting": "200 mg q.d., 12 weeks results", "result": 45, "unit": "%"}, {"measurement": "% patients reaching low disease activity at week 12 (LOCF)", "setting": "200 mg q.d., 12 weeks results", "result": 28, "unit": "%"}, {"measurement": "% patients reaching remission at week 12 (LOCF)", "setting": "200 mg q.d., 12 weeks results", "result": 17, "unit": "%"}, {"measurement": "% patients reaching low disease activity and/or remission at week 24 (LOCF)", "setting": "200 mg q.d., 24 weeks results", "result": 46, "unit": "%"}, {"measurement": "% patients reaching low disease activity at week 24 (LOCF)", "setting": "200 mg q.d., 24 weeks results", "result": 19, "unit": "%"}, {"measurement": "% patients reaching remission at week 24 (LOCF)", "setting": "200 mg q.d., 24 weeks results", "result": 28, "unit": "%"}, {"measurement": "DAS28(CRP) mean CFB (LOCF)", "setting": "200 mg q.d., week 8, 12 weeks results", "result": "−2.24"}]}]}
